Data: patent US10471088B2 (GNOSIS SPA, priority 2006, dated 2019)
Values joined by “and” are separate entries in the source; they are usually repeats but may differ in a detail not shown here. Identical values can stand only once.

Tests used:
[1] = Analysis of starting material lots (SAMe salts, NADH) prior to / after mixing with calcium oxide, t = 0 and storage at 20° C. for 21 days; format: physicochemical; conditions: for permanent removal of the moisture content: mixture with calcium oxide stored for 21 days at 20° C.; for residual moisture content: starting material
[2] = Accelerated stability (stress test 5 days at 53° C.) of starting material lots prior to / after mixing with calcium oxide; format: physicochemical; conditions: for Moisture content % K.F. (stress test) / Total impurities % (stress test) / % S,S (stress test) / SAMe titre % (stress test): 5 days at 53° C.; for permanent removal of the moisture content: mixture with calcium oxide after the stress test at 53° C. for 5 days
[3] = after mixing with calcium oxide
[4] = prior to mixing with calcium oxide

permanent removal of the moisture content [1] | Moisture content % K.F. t = 21 days at 20° C. [1, 4] | residual moisture content [1] | permanent removal of the moisture content [2] | Compound | Moisture content % K.F. t = 0 [1, 3] | Moisture content % K.F. t = 21 days at 20° C. [1, 3] | Moisture content % K.F. t = 0 [1, 4] | Moisture content % K.F. (stress test) [2, 3] | Total impurities % (stress test) [2, 3] | Moisture content % K.F. (stress test) [2, 4] | Total impurities % (stress test) [2, 4] | % S,S t = 0 [1, 3] | SAMe titre % t = 0 [1, 3] | Total impurities % t = 0 [1, 3] | % S,S t = 0 [1, 4] | SAMe titre % t = 0 [1, 4] | Total impurities % t = 0 [1, 4] | % S,S (stress test) [2, 3] | SAMe titre % (stress test) [2, 3] | % S,S (stress test) [2, 4] | further results
approximately 40% | 6.34% and 6.87% and 5.76% and 6.32% | 5-7 % K.F. | approximately 60% | NC(=O)C1=CN([C@@H]2O[C@H](COP(=O)(O)OP(=O)(O)OC[C@H]3O[C@@H](n4cnc5c(N)ncnc54)[C@H](O)[C@@H]3O)[C@@H](O)[C@H]2O)C=CC1 [NADH] | 6.44% and 7.23% and 6.87% and 6.21% and 6.33% | 4.01% and 4.39% and 3.98% and 3.20% and 4.32% | 6.66% and 7.09% and 5.94% and 6.45% and 6.38% | 3.23% and 3.54% and 3.10% and 3.49% and 3.45% | 2.67% and 3.14% and 3.02% and 2.45% and 3.54% | 6.23% and 6.54% and 5.00% and 6.09% and 6.05% | 8.55% and 7.34% and 7.02% and 7.17% and 7.54% | – | – | – | – | – | – | – | – | – | NADH (sodium salt) titre % t = 0 ([1]; after mixing with 10% of calcium oxide): 83.93 (*) % and 84.23 (*) % and 83.95 (*) % and 84.53 (*) % and 85.32 (*) %; NADH (sodium salt) titre % t = 0 [1, 4]: 92.73% and 92.23% and 92.45% and 92.43% and 91.98%; NADH (sodium salt) titre % t = 0 (stress test) [2, 3]: 80.56% and 82.56% and 82.49% and 81.19% and 82.34%; NADH (sodium salt) titre % t = 0 (stress test) [2, 4]: 83.11% and 84.58% and 83.99% and 82.19% and 83.84%
approximately 40% | 1.99% and 2.02% and 2.03% and 2.31% | – | approximately 60% | S-adenosyl methionine-1,4-butene disulphonate | 1.80% and 1.84% and 1.94% and 1.89% and 1.87% | 1.38% and 1.40% and 1.33% and 1.45% and 1.27% | 1.89% and 1.94% and 2.03% and 2.01% and 1.98% | 0.81% and 0.88% and 0.78% and 0.87% and 0.93% | 2.13% and 1.35% and 2.03% and 1.98% and 2.00% | 1.96% and 1.93% and 2.09% and 2.21% and 2.00% | 4.63% and 4.47% and 4.06% and 4.23% and 4.05% | 84.54% and 85.25% and 84.21% and 85.02% and 83.49% | 50.34% and 50.08% and 50.01% and 49.78% and 50.12% | 0.57% and 0.53% and 0.49% and 0.50% | 84.82% and 85.34% and 84.58% and 83.89% | 52.02% and 51.78% and 51.34% and 51.54% and 52.34% | 0.67% and 0.64% and 0.44% and 0.56% and 0.45% | 71.89% and 70.94% and 70.34% and 70.02% and 71.32% | 50.04% and 50.00% and 50.01% and 49.89% | 59.49% and 58.98% and 59.43% and 60.02% and 60.32% | SAMe titre % (stress test) [2, 4]: 51.72% and 50.79% and 50.94% and 50.93% and 51.03%
– | – | 1-1.5 % K.F. | – | C[S+](CC[C@H](N)C(=O)[O-])C[C@H]1O[C@@H](n2cnc3c(N)ncnc32)[C@H](O)[C@@H]1O (some centres unmarked) [SAMe, S-adenosyl methionine] | – | – | – | – | – | – | – | – | – | – | – | – | – | – | – | – | –

Compound | permanent removal of the moisture content [1] | Moisture content % K.F. t = 21 days at 20° C. [1, 4] | residual moisture content [1] | permanent removal of the moisture content [2] | Moisture content % K.F. t = 0 [1, 3] | Moisture content % K.F. t = 21 days at 20° C. [1, 3] | Moisture content % K.F. t = 0 [1, 4] | Moisture content % K.F. (stress test) [2, 3] | Total impurities % (stress test) [2, 3] | Moisture content % K.F. (stress test) [2, 4] | Total impurities % (stress test) [2, 4] | % S,S t = 0 [1, 3] | SAMe titre % t = 0 [1, 3] | Total impurities % t = 0 [1, 3] | % S,S t = 0 [1, 4] | SAMe titre % t = 0 [1, 4] | Total impurities % t = 0 [1, 4] | % S,S (stress test) [2, 3] | SAMe titre % (stress test) [2, 3] | % S,S (stress test) [2, 4] | further results
C[S+](CC[C@H](N)C(=O)O)C[C@H]1O[C@@H](n2cnc3c(N)ncnc32)[C@H](O)[C@@H]1O.Cc1ccc(S(=O)(=O)[O-])cc1 (some centres unmarked) [S-adenosyl methionine paratoluene sulphonate] | approximately 40% | 1.09% and 1.12% and 1.13% and 1.05% and 1.03% | – | approximately 60% | 1.04% and 0.95% and 0.98% and 1.16% and 1.00% | 0.59% and 0.61% and 0.63% and 0.55% and 0.70% | 1.09% and 1.04% and 1.15% and 1.08% and 1.06% | 0.35% and 0.38% and 0.43% and 0.41% and 0.39% | 2.89% and 3.02% and 3.17% and 2.78% and 2.65% | 0.99% and 1.00% and 1.09% and 1.05% and 1.03% | 4.34% and 5.02% and 5.17% and 5.54% and 4.55% | 79.99% and 81.23% and 80.67% and 80.32% and 80.11% | 50.23% and 50.19% and 50.22% and 50.02% and 50.16% | 0.94% and 1.04% and 0.66% and 0.73% and 1.03% | 79.82% and 81.54% and 80.87% and 80.02% and 80.21% | 52.23% and 52.29% and 52.96% and 51.98% and 52.76% | 0.94% and 1.04% and 0.66% and 0.73% and 1.03% | 65.79% and 67.25% and 66.47% and 65.43% and 66.56% | 49.98% and 49.87% and 50.09% and 50.00% and 49.81% | 55.79% and 55.28% and 56.21% and 56.31% and 56.12% | SAMe titre % (stress test) [2, 4]: 49.58% and 49.99% and 51.19% and 50.84% and 50.11%
